Drawing on ChEMBL document CHEMBL1128854, “Stereoselective synthesis and evaluation of all stereoisomers of Z4349, a novel and selective -opioid analgesic” (Bioorg Med Chem Lett, 1995), this text covers Ki and ED50 for 13 molecules.

The target in one experiment is Mu-type opioid receptor (Rattus norvegicus, UniProt P33535). Put plainly: Inhibition of [3H]dihydromorphine (1 nM) binding to mu opioid receptor of rat brain homogenate.
Experiment [1] addresses T1, Delta-type opioid receptor (Rattus norvegicus, UniProt P33533). As to the kind of experiment: Inhibition of [3H]-[D-Pen2, D-Pen5]-enkephalin (2 nM) to Opioid receptor delta 1 of male Sprague-Dawley rat brain homogenate.
The target in experiment [2] is T2, Kappa-type opioid receptor (Rattus norvegicus, UniProt P34975). As to the kind of experiment: […] to Opioid receptor kappa 1 of rat brain homogenate; Not detectable. It counts as tissue-based.
T2 sequence (P34975 whole entry): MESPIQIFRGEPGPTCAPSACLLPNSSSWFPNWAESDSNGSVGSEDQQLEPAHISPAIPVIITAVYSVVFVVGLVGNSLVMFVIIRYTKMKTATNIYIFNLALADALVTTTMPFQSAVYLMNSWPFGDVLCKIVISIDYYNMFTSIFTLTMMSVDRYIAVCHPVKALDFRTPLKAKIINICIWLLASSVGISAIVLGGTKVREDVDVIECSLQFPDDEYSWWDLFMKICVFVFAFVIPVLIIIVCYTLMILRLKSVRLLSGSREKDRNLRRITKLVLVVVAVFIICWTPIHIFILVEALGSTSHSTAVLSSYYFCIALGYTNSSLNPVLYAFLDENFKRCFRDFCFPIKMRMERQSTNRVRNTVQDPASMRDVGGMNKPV
The subject of another experiment is Mus musculus. Put plainly: In vivo analgesic activity in hot plate test after subcutaneous administration in mice. It counts as functional. Particulars: sc; call rule not given here. For orientation: Hot-plate and tail-flick tests time the reaction to a heat stimulus.
Experiment [3] addresses T2, Kappa-type opioid receptor. As to the kind of experiment: Inhibition of 9 (2 nM) binding to Opioid receptor kappa 1 of rat brain homogenate. In kind it is tissue-based.
The target in experiment [4] is T1, Delta-type opioid receptor. Put plainly: Inhibition of [3H]-[D-Pen2, D-Pen5]-enkephalin (2 nM) to Opioid receptor delta 1 of male Sprague-Dawley rat brain homogenate; Not detectable.

Chain of Mu-type opioid receptor (P33535 whole entry): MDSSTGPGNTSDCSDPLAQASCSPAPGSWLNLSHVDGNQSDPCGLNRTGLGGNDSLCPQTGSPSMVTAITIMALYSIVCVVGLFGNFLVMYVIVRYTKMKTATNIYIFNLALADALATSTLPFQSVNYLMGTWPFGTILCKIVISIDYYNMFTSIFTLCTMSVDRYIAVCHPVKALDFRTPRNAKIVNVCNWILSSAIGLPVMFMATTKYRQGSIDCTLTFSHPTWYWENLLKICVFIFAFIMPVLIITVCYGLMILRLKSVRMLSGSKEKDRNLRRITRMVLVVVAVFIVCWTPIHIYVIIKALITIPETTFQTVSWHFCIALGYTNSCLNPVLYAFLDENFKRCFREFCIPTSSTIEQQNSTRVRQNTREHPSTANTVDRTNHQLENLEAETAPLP
T1 sequence (P33533 whole entry): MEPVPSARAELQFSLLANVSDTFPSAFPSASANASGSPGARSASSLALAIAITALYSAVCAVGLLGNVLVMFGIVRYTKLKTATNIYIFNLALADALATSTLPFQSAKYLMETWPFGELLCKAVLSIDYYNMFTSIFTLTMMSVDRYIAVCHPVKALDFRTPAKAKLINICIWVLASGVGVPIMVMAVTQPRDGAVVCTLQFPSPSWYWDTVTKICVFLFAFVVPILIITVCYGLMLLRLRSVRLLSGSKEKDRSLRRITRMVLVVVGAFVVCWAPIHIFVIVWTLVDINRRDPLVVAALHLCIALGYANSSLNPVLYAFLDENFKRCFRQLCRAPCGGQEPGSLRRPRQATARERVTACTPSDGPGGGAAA

With `CC[C@@H](C)N(C[C@H](O)[C@@H]1CCC(=O)N1Cc1ccccc1Cl)[C@@H](C)CC`, the Ki (usually the dissociation constant of the complex between target and ligand, obtained from inhibition or displacement) at Mu-type opioid receptor was 32 nM; in experiment [1] it was greater than 5000 nM; in experiment [2], “Not Active”. Also, it took a dose of 1.5 mg/kg to reach the 50% effect level in the experiment with Mus musculus (ED50).
For the molecule `CC[C@@H](C)N(C[C@H](O)[C@H]1CCC(=O)N1Cc1ccccc1Cl)[C@H](C)CC`, the Ki is 100 nM on Mu-type opioid receptor, 1850 nM in experiment [1] and greater than 5000 nM in experiment [3]. In the experiment with Mus musculus, the 50% effective dose (ED50) (commonly the dose that gives a 50% effect, or the effect in half of the subjects) is 10.4 mg/kg.
For the molecule `CC[C@@H](C)N(C[C@H](O)[C@@H]1CCC(=O)N1Cc1ccccc1Cl)[C@H](C)CC`, the Ki turned out to be 0.25 nM on Mu-type opioid receptor, 265 nM in experiment [1] and 62.5 nM in experiment [3]. The molecule further yielded an ED50 with Mus musculus of 0.01 mg/kg.
As to `CC[C@H](C)N(C[C@H](O)[C@H]1CCC(=O)N1Cc1ccccc1Cl)[C@@H](C)CC`, the Ki on Mu-type opioid receptor is greater than 5000 nM; in experiment [1], greater than 5000 nM; in experiment [3], 270 nM. In the experiment with Mus musculus, the ED50 was greater than 100 mg/kg.
For `CC[C@@H](C)N(C[C@@H](O)[C@H]1CCC(=O)N1Cc1ccccc1Cl)[C@@H](C)CC`, the Ki at Mu-type opioid receptor was determined as 87 nM; in experiment [1] it was 1780 nM; in experiment [3], 260 nM. For the same molecule, the 50% effective dose (ED50) in the experiment on Mus musculus is 14.3 mg/kg.
In the case of `CC[C@H](C)N(C[C@@H](O)[C@@H]1CCC(=O)N1Cc1ccccc1Cl)[C@@H](C)CC`, the Ki on Mu-type opioid receptor is 145 nM; in experiment [1], greater than 5000 nM; in experiment [3], greater than 5000 nM. In addition, the ED50 in the experiment with Mus musculus was greater than 100 mg/kg.
Take `CC[C@H](C)N(C[C@H](O)[C@@H]1CCC(=O)N1Cc1ccccc1Cl)[C@@H](C)CC`: the Ki was 2250 nM on Mu-type opioid receptor, greater than 5000 nM in experiment [1] and greater than 5000 nM in experiment [3]. The molecule further registered an ED50 in the experiment on Mus musculus greater than 100 mg/kg.
For the molecule `CC[C@@H](C)N(C[C@@H](O)[C@H]1CCC(=O)N1Cc1ccccc1Cl)[C@H](C)CC`, the values for the Ki (on Mu-type opioid receptor; in experiment [1]; in experiment [3]) were 35 nM, greater than 5000 nM and 4850 nM, respectively. The same molecule yielded an ED50 with Mus musculus of 0.47 mg/kg.
In the case of `CC[C@@H](C)N(C[C@@H](O)[C@@H]1CCC(=O)N1Cc1ccccc1Cl)[C@H](C)CC`, the Ki on Mu-type opioid receptor is 390 nM; in experiment [1], 550 nM; in experiment [3] it was greater than 5000 nM. Further, the ED50 in the experiment on Mus musculus was greater than 100 mg/kg.
With `CC[C@@H](C)N(C[C@H](O)[C@H]1CCC(=O)N1Cc1ccccc1Cl)[C@@H](C)CC`, the Ki at Mu-type opioid receptor is greater than 5000 nM; in experiment [3], 198 nM; in experiment [4] it was “Not Active”. In the experiment on Mus musculus, this molecule had an ED50 greater than 100 mg/kg.
For the molecule `CC[C@H](C)N(C[C@@H](O)[C@H]1CCC(=O)N1Cc1ccccc1Cl)[C@@H](C)CC`, the figures for the Ki (at Mu-type opioid receptor; in experiment [4]; in experiment [2]) were greater than 5000 nM, “Not Active” and “Not Active”, respectively. The ED50 in the experiment on Mus musculus was greater than 100 mg/kg.
On to `CC[C@@H](C)N(C[C@@H](O)[C@@H]1CCC(=O)N1Cc1ccccc1Cl)[C@@H](C)CC`, for which the Ki on Mu-type opioid receptor is 340 nM; in experiment [1] it was greater than 5000 nM; in experiment [3], 3650 nM. The molecule also had an ED50 in the experiment with Mus musculus greater than 100 mg/kg.
`CN1CC[C@]23c4c5ccc(O)c4O[C@H]2[C@@H](O)C=C[C@H]3[C@H]1C5` [MORPHINE] returned an ED50 in the experiment on Mus musculus of 4.6 mg/kg.
